# Assay results reported in patent publication US20220112187A1, “PYRAZOLOPYRIDINE AMINE COMPOUNDS FOR THE TREATMENT OF AUTOIMMUNE DISEASE” (Hoffmann-La Roche Inc., priority 2018, published 2022).
# pIC50: −log10 of the molar value.
# Molecular target: T1, human TLR7 (Homo sapiens, UniProt Q9NYK1)
# T1 sequence (Q9NYK1 27-1049): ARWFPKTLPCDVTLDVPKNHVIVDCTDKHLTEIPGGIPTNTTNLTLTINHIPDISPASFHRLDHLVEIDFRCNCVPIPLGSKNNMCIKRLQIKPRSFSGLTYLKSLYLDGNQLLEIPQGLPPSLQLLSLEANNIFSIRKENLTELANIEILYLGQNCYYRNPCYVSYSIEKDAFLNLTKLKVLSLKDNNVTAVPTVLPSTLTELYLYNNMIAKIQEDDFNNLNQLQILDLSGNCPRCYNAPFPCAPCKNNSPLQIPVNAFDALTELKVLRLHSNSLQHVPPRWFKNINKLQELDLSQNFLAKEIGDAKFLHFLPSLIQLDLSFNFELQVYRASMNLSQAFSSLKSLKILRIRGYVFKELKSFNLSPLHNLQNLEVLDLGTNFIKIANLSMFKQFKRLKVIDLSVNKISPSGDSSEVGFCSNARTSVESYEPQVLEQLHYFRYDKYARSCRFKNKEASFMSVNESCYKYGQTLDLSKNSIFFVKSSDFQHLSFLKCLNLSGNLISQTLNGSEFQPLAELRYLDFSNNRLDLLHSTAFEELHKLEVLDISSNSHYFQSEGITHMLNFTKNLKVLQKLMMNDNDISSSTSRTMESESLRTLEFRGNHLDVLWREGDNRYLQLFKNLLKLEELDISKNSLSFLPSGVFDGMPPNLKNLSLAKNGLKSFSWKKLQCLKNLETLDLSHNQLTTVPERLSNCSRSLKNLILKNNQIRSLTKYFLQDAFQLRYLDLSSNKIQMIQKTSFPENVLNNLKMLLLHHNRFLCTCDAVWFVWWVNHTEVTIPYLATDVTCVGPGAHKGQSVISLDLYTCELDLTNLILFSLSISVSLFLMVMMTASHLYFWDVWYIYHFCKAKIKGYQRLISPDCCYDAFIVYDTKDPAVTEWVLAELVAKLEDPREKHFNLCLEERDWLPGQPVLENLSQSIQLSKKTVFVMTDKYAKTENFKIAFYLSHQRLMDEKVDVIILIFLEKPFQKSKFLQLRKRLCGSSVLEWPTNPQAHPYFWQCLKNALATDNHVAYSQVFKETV
# Experiment: HEK293-Blue-hTLR-7 cells assay (SEAP reporter, R848 stimulation)
# Type: cell-based
# Conditions: HEK293-Blue-hTLR7 cells, R848 ligand, 20 hrs incubation
# Text: A stable HEK293-Blue-hTLR-7 cell line was purchased from InvivoGen (Cat. #: hkb-htlr7, San Diego, Calif., USA). These cells were originally designed for studying the stimulation of human TLR7 by monitoring the activation of NF-κB. A SEAP (secreted embryonic alkaline phosphatase) reporter gene was placed under the control of the IFN-β minimal promoter fused to five NF-κB and AP-1-binding sites. The SEAP was induced by activating NF-κB and AP-1 via stimulating HEK-Blue hTLR7 cells with TLR7 ligands. Therefore the reporter expression was declined by TLR7 antagonist under the stimulation of a ligand, such as R848 (Resiquimod), for incubation of 20 hrs. The cell culture supernatant SEAP reporter activity was determined using QUANTI-Blue™ kit (Cat. #: rep-qb1, Invivogen, San Diego, Ca, USA) at a wavelength of 640 nm, a detection medium that turns purple or blue in the presence of alkaline phosphatase.
# HEK293-Blue-hTLR7 cells were incubated at a density of 250,000˜450,000 cells/mL in a volume of 170 μL in a 96-well plate in Dulbecco's Modified Eagle's medium (DMEM) containing 4.5 g/L glucose, 50 U/mL penicillin, […], […], 2 mM L-glutamine, 10% (v/v) heat-inactivated fetal bovine serum with addition of 20 μL test compound in a serial dilution in the presence of final DMSO at 1% and 10 μL of 20 uM R848 in above DMEM, perform incubation under 37° C. in a CO2 incubator for 20 hrs. Then 20 μL of the supernatant from each well was incubated with 180 μL Quanti-blue substrate solution at 37° C. for 2 hrs and the absorbance was read at 620˜655 nm using a spectrophotometer. The signalling pathway that TLR7 activation leads to downstream NF-κB activation has been widely accepted, and therefore similar reporter assay was modified for evaluating TLR7 antagonist.
row,Structure (SMILES),pIC50
1,"C[C@@H]1CN(c2ccc(C#N)n3nccc23)C[C@H](CN2CC3(CCCNCC3)C2)O1 [Example 46, 4-[(2S,6R)-2-(2,8-diazaspiro[3.6]decan-2-ylmethyl)-6-methyl-morpholin-4-yl]pyrazolo[1,5-a]pyridine-7-carbonitrile]",6.22
2,"C[C@@H]1CN(c2ccc(C#N)n3nccc23)C[C@H](CN2CCC(N3CCCC3)CC2)O1 [Example 54, 4-[(2R,6S)-2-methyl-6-[(4-pyrrolidin-1-yl-1-piperidyl)methyl]morpholin-4-yl]pyrazolo[1,5-a]pyridine-7-carbonitrile]",6.72
3,"C[C@@H]1CN(c2ccc(C#N)n3nccc23)C[C@H](CN2CCC[C@@H]3NCCC32)O1 (stereo partly drawn) [Example 63, 4-[(2R,6S)-2-methyl-6-[[cis-(3aS,7aS)-1,2,3,3a,5,6,7,7a-octahydropyrrolo[3,2-b]pyridin-4-yl]methyl]morpholin-4-yl]pyrazolo[1,5-a]pyridine-7-carbonitrile]",6.57
4,"C[C@@H]1CN(c2ccc(C#N)n3nccc23)C[C@H](CN2CCC3(CCCN3)CC2)O1 [Example 53, 4-[(2S,6R)-2-(1,8-diazaspiro[4.5]decan-8-ylmethyl)-6-methyl-morpholin-4-yl]pyrazolo[1,5-a]pyridine-7-carbonitrile]",6.64
5,"C[C@@H]1CN(c2ccc(C#N)n3nccc23)C[C@H](CN2CCC3(CCCCN3)C2)O1 (stereo partly drawn) [Example 42, 4-[(2S,6R)-2-(2,6-diazaspiro[4.5]decan-2-ylmethyl)-6-methyl-morpholin-4-yl]pyrazolo[1,5-a]pyridine-7-carbonitrile]",7.01
6,"C[C@@H]1CN(c2ccc(C#N)n3nccc23)C[C@H](CN2CCC(N)C(F)(F)C2)O1 (stereo partly drawn) [Example 34, 4-[(2S,6R)-2-[(4-amino-3,3-difluoro-1-piperidyl)methyl]-6-methyl-morpholin-4-yl]pyrazolo[1,5-a]pyridine-7-carbonitrile]",7.06
7,"C[C@@H]1CN(c2ccc(C#N)n3nccc23)C[C@H](CN2CCC23CNC3)O1 [Example 55, 4-[(2S,6R)-2-(1,6-diazaspiro[3.3]heptan-1-ylmethyl)-6-methyl-morpholin-4-yl]pyrazolo[1,5-a]pyridine-7-carbonitrile]",6.27
8,"C[C@@H]1CN(c2ccc(C#N)n3nccc23)C[C@H](CN2C3CCC2CC(N)C3)O1 (stereo partly drawn) [Example 37, 4-[(2S,6R)-2-[(3-amino-8-azabicyclo[3.2.1]octan-8-yl)methyl]-6-methyl-morpholin-4-yl]pyrazolo[1,5-a]pyridine-7-carbonitrile]",6.72
9,"C[C@@H]1CN(c2ccc(C#N)n3nccc23)C[C@H](CN2CCC3(CC2)CNCCO3)O1 [Example 60, 4-[(2R,6S)-2-methyl-6-(1-oxa-4,9-diazaspiro[5.5]undecan-9-ylmethyl)morpholin-4-yl]pyrazolo[1,5-a]pyridine-7-carbonitrile]",7.00
10,"C[C@@H]1CN(c2ccc(C#N)n3nccc23)C[C@H](CN2C[C@H]3CC[C@@H](N(C)C)[C@H]3C2)O1 (racemic) [Example 75, 4-[(2S,6R)-2-[[4-(dimethylamino)-3,3a,4,5,6,6a-hexahydro-1H-cyclopenta[c]pyrrol-2-yl]methyl]-6-methyl-morpholin-4-yl]pyrazolo[1,5-a]pyridine-7-carbonitrile]",6.17
11,"C[C@@H]1CN(c2ccc(C#N)n3nccc23)C[C@H](CN2CCC(N)(c3ccccc3)CC2)O1 [Example 73, 4-[(2S,6R)-2-[(4-amino-4-phenyl-1-piperidyl)methyl]-6-methyl-morpholin-4-yl]pyrazolo[1,5-a]pyridine-7-carbonitrile]",6.82
12,"C[C@@H]1CN(c2ccc(C#N)n3nccc23)C[C@H](CN2CCCC3NCCCC32)O1 (stereo partly drawn) [Example 64, 4-[(2S,6R)-2-(3,4,4a,5,6,7,8,8a-octahydro-2H-1,5-naphthyridin-1-ylmethyl)-6-methyl-morpholin-4-yl]pyrazolo[1,5-a]pyridine-7-carbonitrile]",6.60
13,"C[C@@H]1CN(c2ccc(C#N)n3nccc23)C[C@H](CN2CCN(C(=O)CN)CC2)O1 [Example 14, 4-[(2S,6R)-2-[[4-(2-aminoacetyl)piperazin-1-yl]methyl]-6-methyl-morpholin-4-yl]pyrazolo[1,5-a]pyridine-7-carbonitrile]",6.34
14,"C[C@@H]1CN(c2ccc(C#N)n3nccc23)C[C@H](CN2CC[C@@H]3CNCC32)O1 (stereo partly drawn) [Example 62, 4-[(2R,6S)-2-methyl-6-[[cis-(3aR,6aR)-3,3a,4,5,6,6a-hexahydro-2H-pyrrolo[3,4-b]pyrrol-1-yl]methyl]morpholin-4-yl]pyrazolo[1,5-a]pyridine-7-carbonitrile]",6.15
15,"C[C@@H]1CN(c2ccc(C#N)n3nccc23)C[C@H](CNC2CCN(C)CC2)O1 [Example 7, 4-[(2R,6S)-2-methyl-6-[[(1-methyl-4-piperidyl)amino]methyl]morpholin-4-yl]pyrazolo[1,5-a]pyridine-7-carbonitrile]",6.59
16,"C[C@@H]1CN(c2ccc(C#N)n3nccc23)C[C@H](CN2C3CCC2CNC3)O1 [Example 43, 4-[(2S,6R)-2-(3,8-diazabicyclo[3.2.1]octan-8-ylmethyl)-6-methyl-morpholin-4-yl]pyrazolo[1,5-a]pyridine-7-carbonitrile]",7.23
17,"C[C@@H]1CN(c2ccc(C#N)n3nccc23)C[C@H](CN2CCC3(CCNC3)C2=O)O1 (stereo partly drawn) [Example 21, 4-[(2R,6R)-2-methyl-6-[(1-oxo-2,7-diazaspiro[4.4]nonan-2-yl)methyl]morpholin-4-yl]pyrazolo[1,5-a]pyridine-7-carbonitrile]",7.01
18,"C[C@@H]1CN(c2ccc(C#N)n3nccc23)C[C@H](CN2CC3CCC(C2)N3)O1 [Example 31, 4-[(2S,6R)-2-(3,8-diazabicyclo[3.2.1]octan-3-ylmethyl)-6-methyl-morpholin-4-yl]pyrazolo[1,5-a]pyridine-7-carbonitrile]",7.28
19,"C[C@@H]1CN(c2ccc(C#N)n3nccc23)C[C@H](CN2CCC(N3CCCCCC3)CC2)O1 [Example 4, 4-[(2S,6R)-2-[[4-(azepan-1-yl)-1-piperidyl]methyl]-6-methyl-morpholin-4-yl]pyrazolo[1,5-a]pyridine-7-carbonitrile]",6.74
20,"CC1CNCCN1C[C@H]1CN(c2ccc(C#N)n3nccc23)C[C@@H](C)O1 (single isomer, unassigned) [Example 50A]",6.64
21,"C[C@@H]1CN(c2ccc(C#N)n3ncc(F)c23)C[C@H](CN2CCCC3(CCNC3)C2)O1 (stereo partly drawn) [Example 68, 3-fluoro-4-[(2S,6R)-2-(2,7-diazaspiro[4.5]decan-7-ylmethyl)-6-methyl-morpholin-4-yl]pyrazolo[1,5-a]pyridine-7-carbonitrile]",6.64
22,"C[C@@H]1CN(c2ccc(C#N)n3nccc23)C[C@H](CN2CC3CCNCC3C2)O1 (stereo partly drawn) [Example 49, 4-[(2S,6R)-2-(1,3,3a,4,5,6,7,7a-octahydropyrrolo[3,4-c]pyridin-2-ylmethyl)-6-methyl-morpholin-4-yl]pyrazolo[1,5-a]pyridine-7-carbonitrile]",6.74
23,"C[C@@H]1CN(c2ccc(C#N)n3nccc23)C[C@H](CN2CCNCC2Cc2ccccc2)O1 (stereo partly drawn) [Example 59, 4-[(2S,6R)-2-[(2-benzylpiperazin-1-yl)methyl]-6-methyl-morpholin-4-yl]pyrazolo[1,5-a]pyridine-7-carbonitrile]",8.15
